Consider 26 compounds from PubChem BioAssay (NCI).

Values joined by “and” are separate entries in the source; they are usually repeats but may differ in a detail not shown here. Equal entries are not always repeated.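 Values below derive from 48-hour exposures of cells grown in 96-well plates, with endpoints linearly interpolated between the two concentrations bracketing the appropriate inhibition level. Abbreviation: GI50, concentration required for 50% inhibition of growth. The concentration for full growth arrest is given as TGI.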 Where only a bound is given, the exact number is not on record here.

The test relates to MDA-MB-468 breast. In words: inhibition of tumour cell growth, NCI panel, 48 h.
With `Cc1ccc(C(=O)Nc2ccccc2C(=O)N/N=C(\c2ccccc2)c2ccccn2)cc1`, the GI50 is 0.266 µM and the TGI was 2.94 µM.
For the compound `O=C(Nc1ccc([N+](=O)[O-])cc1)c1cc2ccccc2cc1O`, the GI50 is 0.898 µM and the TGI came out at 4.74 µM.
On the same counts, the results for `CC(=O)O[C@@H]1C(=O)N(c2cnccn2)[C@H]1c1ccccc1[N+](=O)[O-]` are 0.376 µM and 4.05 µM.
As to `Cc1cc(Cl)ccc1Nc1nc(C(F)(F)F)ccc1C(=O)N/N=C/c1ccc(N(C)C)cc1`, the GI50 was 0.442 µM and the TGI amounted to 4.67 µM.
For `CCOC(=O)c1cn2ncnc(Oc3ccc(NC(=O)NCCN(CC)CC)c(Cl)c3)c2c1C` the same measures were 9.57 µM and 29 µM.
Consider `COc1cc(C(=O)/C=C/c2c(-c3cccs3)nc3ccccn23)cc(OC)c1OC`, for which the GI50 is 1.72 µM and the TGI came out at 3.4 µM.
As for `COc1ccc(-c2cc3nccn3c(Nc3ncccc3C(N)=O)n2)cc1OC`, the GI50 is > 100 µM and the TGI is > 100 µM.
Take `COc1cc2c(cc1-c1c(C)noc1C)ncc1[nH]c(=O)n([C@H](C)c3ccccn3)c12`: the GI50 was 0.445 µM and the TGI is > 36.8 µM.
As to `O=C1C(Cl)=C(Nc2ccc3c(c2NC2=C(Cl)C(=O)c4ccccc4C2=O)C(=O)c2ccccc2C3=O)C(=O)c2ccccc21`, the GI50 is 1.35 µM and the TGI was found to be 3.85 µM.
Regarding `O=C(Nn1c2c(sc1=NC1CC1)C(=O)c1ccccc1C2=O)c1cc2ccc1CCc1ccc(cc1)CC2`, the GI50 was 2.55 µM and the TGI is 7.32 µM.
Regarding `O=c1[nH]cc(F)c(=O)[nH]1`, the TGI was > 100 µM and 1560 µM.
As for `Clc1ccc2c(NCCN3CCN(c4ccnc(N5CCCC5)n4)CC3)ccnc2c1`, the GI50 was 2.05 µM and the TGI came to 5.09 µM.
Take `CN(C)S(=O)(=O)c1cccc(-c2nc3sc4c(c3c(=O)[nH]2)CCCC4)c1`: the GI50 was 8.92 µM and the TGI is > 100 µM.
On the same counts, the results for `C#CCOc1cccc(Nc2ncnc3c2ncn3C2CCN(C(=O)CCl)C2)c1` (stereo unspecified) are 19.8 µM and 41 µM.
Take `CO[C@@]12[C@H](COC(N)=O)C3=C(C(=O)C(C)=C(N)C3=O)N1C[C@@H]1N[C@@H]12`: the GI50 was 0.241 µM and 1.01 µM; the TGI was 1.3 µM and 4.9 µM.
As to `CCCCc1oc2ccccc2c1C(=O)c1cc(I)c(OCCN(CC)CC)c(I)c1`, the GI50 was 1.49 µM and the TGI was 3.12 µM.
For `c1cc(-c2cnn3nc(N4CCOCC4)ccc23)nc(NC2CC2)n1` the same measures were 6.8 µM and 21 µM.
With `Cc1sc2c(c1C)C(c1ccc(Cl)cc1)=N[C@@H](CC(=O)Nc1ccc(O)cc1)c1nnc(C)n1-2`, the GI50 is 0.212 µM and the TGI is 17.8 µM.
Turning to `c1ccc([P+](CCC[P+](c2ccccc2)(c2ccccc2)c2ccccc2)(c2ccccc2)c2ccccc2)cc1`, the GI50 was 1.72 µM and the TGI was found to be 26.3 µM.
On the same counts, the results for `O=C(Nc1cccc(Cl)c1)Nc1nc2ccc([N+](=O)[O-])cc2o1` are 2.26 µM and 5.73 µM.
On the same counts, the results for `COc1cc(C2c3cc4c(cc3OC(N3CCOCC3)C2C)OCO4)cc(OC)c1OC` (stereo unspecified) are 4.15 µM and > 100 µM.
On the same counts, the results for `CC(C)(C)n1cc(-c2ccnc(NCCCNS(=O)(=O)c3ccc(Cl)cc3)c2)c(-c2cccc(O)c2)n1` are 1.8 µM and 4.16 µM.
With `ClC1=C(Cl)C(Cl)=C(Cl)C1=Cc1ccc(Cl)cc1Cl`, the GI50 was 0.257 µM and the TGI amounted to 0.728 µM.
For `C=C(C=O)[C@@H]1CC[C@]2(C(=O)O)CC[C@]3(C)C(CC[C@@H]4[C@@](C)(CCC#N)[C@H](C(=C)C=O)CC[C@]43C)[C@@H]12` (stereo partly specified) the same measures were 2.31 µM and 5.69 µM.
In the case of `C=C1C(=O)O[C@H]2[C@H]1CC/C(COC(=O)NCc1cccc(OC)c1)=C\CC[C@@]1(C)O[C@@H]21`, the GI50 was 1.29 µM and the TGI amounted to 3.84 µM.
For `CCCCCCCCCCC(CN(CC)CC)C(O)c1ccccc1` (stereo unspecified) the same measures were 1.52 µM and 3.21 µM.
